Experimental data: patent US20240139376A1, “RECONSTITUTION OF EXTRACELLULAR MATRIXES FOR MUSCULOSKELETAL JOINT TISSUE REPAIR USING BIOMIMETIC BIOLOGIC AND SYNTHETIC FACTORS” (Rhode Island Hospital, priority 2021, published 2024)

Key:
Human CPCs [1] = test: RT-qPCR of chondrogenic and hypertrophy markers after KGN treatment, CPCs; format: cell-based
Description: (§1) 1 μM KGN enhances chondrogenesis of CPCs but not MSCs. The following materials and methods were used to generate the data described herein. Human CPCs and bone marrow derived mesenchymal stem cells (BM-MSCs) were cultured at 40,000 cells/well for 3 days or 22,000 cells/well for 10 days on 12-well plates. Cells were either untreated or treated with 500 nM, 1 μM, 10 μM, or 100 μM KGN (Sigma-Aldrich) at N=5 for each treatment group. At experimental endpoint following KGN treatment, RT-qPCR was used the measure expression of chondrogenic markers SRY-Box Transcription Factor 9 (SOX9), collagen 2 (COL2), collagen 1 (COL1) (FIG. 3A) as well as hypertrophy and catabolism markers, associated with development of osteoarthritis, collagen 10 (COL10), matrix metallopeptidase 13 (MMP13), Runt-related transcription factor 2 (RUNX2) (FIG. 3B).
(§2) Human CPCs and BM-MSCs were cultured at 40,000 cells/well for 3 days or 22,000 cells/well for 10 days on 12-well plates. Cells were either untreated or treated with 500 nM, 1 uM, 10 uM, or 100 uM KGN (Sigma-Aldrich) at N=5 for each treatment group. At experimental endpoint following KGN treatment, RT-qPCR was used the measure expression of chondrogenic markers SOX9, COL2, COL1 as well as hypertrophy and catabolism markers COL10, MMP13, RUNX2. CPCs and BM-MSCs were cultured again at 22,000 cell/swell for 10 days in 12-well plates and again treated with KGN. At 5 and 10 days of treatment, cell culture supernatant was collected, with cell media and KGN replenished at the 5-day timepoint (N=3). Supernatants were used to perform ELISA for measuring MMP13 protein. At day 10, cell culture plates were stained for Alcian Blue (N=4). The color was extracted and the absorbances were quantified via spectrophotometry, to assess acidic glycosaminoglycans (GAG) and hyaluronan (HA). In analysis, within and between group differences were assessed through 2-way ANOVA with Dunnett's multiple comparisons test. Significant differences are signified by p-values≤0.05.

[2] = test system: bone marrow derived mesenchymal stem cells (BM-MSCs); test: RT-qPCR of chondrogenic and hypertrophy markers after KGN treatment, BM-MSCs; format: cell-based, Human
Description: as §1, §2

Human CPCs [3] = test: ELISA for MMP13 protein in cell culture supernatant, CPCs; format: cell-based; settings: all treatment groups
Description: (§3) CPCs and BM-MSCs were cultured again at 22,000 cell/swell for 10 days in 12-well plates and again treated with KGN. At 5 and 10 days of treatment, cell culture supernatant was collected, with cell media and KGN replenished at the 5-day timepoint (N=3). Supernatants were used to perform ELISA for measuring MMP13 protein. At day 10, cell culture plates were stained for Alcian Blue (N=4). The color was extracted and the absorbances were quantified via spectrophotometry, to assess acidic glycosaminoglycans (GAG) and hyaluronan (HA). In analysis, within and between group differences were assessed through 2-way ANOVA with Dunnett's multiple comparisons test. Significant differences are signified by p-values ≤0.05.
(§4) Human CPCs and BM-MSCs were cultured at 40,000 cells/well for 3 days or 22,000 cells/well for 10 days on 12-well plates. Cells were either untreated or treated with 500 nM, 1 uM, 10 uM, or 100 uM KGN (Sigma-Aldrich) at N=5 for each treatment group. […] The color was extracted and the absorbances were quantified via spectrophotometry, to assess acidic glycosaminoglycans (GAG) and hyaluronan (HA). In analysis, within and between group differences were assessed through 2-way ANOVA with Dunnett's multiple comparisons test. […]

BM-MSCs [4] = test: ELISA for MMP13 protein in cell culture supernatant, BM-MSCs; format: cell-based, Human
Description: as §3, §2

Human CPCs [5] = test: Alcian Blue staining (GAG and HA), CPCs; format: cell-based; settings: 1 μM KGN, 10 days, p<0.05
Description: as §3, §4

BM-MSCs [6] = test: Alcian Blue staining (GAG and HA), BM-MSCs; format: cell-based, Human; settings: 10 days
Description: as §3, §4

`O=C(O)c1ccccc1C(=O)Nc1ccc(-c2ccccc2)cc1` [KGN, kartogenin] was tested, and the “expression of MMP13” value (Human CPCs [1]; 1 μM KGN, 3 days) was “increased”, the “expression of RUNX2” value (Human CPCs [1]; 1 μM KGN, 3 days) was “increased” and the “expression of RUNX2” value (Human CPCs [1]; 10 μM KGN, 3 days) was “increased”. The “expression of RUNX2” value (Human CPCs [1]; 100 μM KGN, 3 days) was “increased”, the “upregulation of COL2 mRNA” value (Human CPCs [1]; CPCs, 1 μM KGN, 3 days, p<0.0001) was 2 fold and the “upregulation of SOX9 mRNA” value (Human CPCs [1]; CPCs, 1 μM KGN, 3 days, p<0.05) was 2 fold. For the same compound, the “upregulation of COL2 mRNA” value (Human CPCs [1]; CPCs, 1 μM KGN, 10 days, p<0.05) was “maintained”, the “expression of COL10” value ([2]; 100 μM KGN, 10 days, p<0.05) was “significantly reduced” and the “expression of MMP13” value ([2]; 100 μM KGN, 10 days, p<0.05) was “significantly reduced”. For the same compound, the “expression of COL1” value ([2]; KGN) was “did not increase”, the “expression of COL2” value ([2]; KGN) was “did not increase” and the “expression of SOX9” value ([2]; KGN) was “did not increase”. The “MMP13 protein in supernatant” value (Human CPCs [3]; 0-5 days KGN treatment) was “undetectable”, the “MMP13 protein in supernatant” value (Human CPCs [3]; 6-10 days KGN treatment) was “undetectable” and the “protein levels of MMP13” value (BM-MSCs [4]; 10 μM KGN, 0-5 days, p<0.001) was “significant decrease”. For the same compound, the “protein levels of MMP13” value (BM-MSCs [4]; 10 μM KGN, 5-10 days, p<0.05) was “significant decrease”, the “protein levels of MMP13” value (BM-MSCs [4]; 100 μM KGN, 0-5 days, p<0.0001) was “significant decrease” and the “protein levels of MMP13” value (BM-MSCs [4]; 100 μM KGN, 5-10 days, p<0.0001) was “significant decrease”. The “Alcian Blue staining intensity vs untreated” value (Human CPCs [5]) was “increased intensity”, the “Alcian Blue staining intensity vs untreated” value (BM-MSCs [6]; 10 μM KGN, p<0.05) was “stained more intensely” and the “Alcian Blue staining intensity vs untreated” value (BM-MSCs [6]; 100 μM KGN, p<0.0001) was “stained more intensely”.
